Assays:
[1] = Compound was evaluated for its pKa (weak acid) value; assay type: physicochemical
[2] = tested on: L1210; test: In vitro antitumor activity against murine leukemia L1210 after 48 hour; assay type: functional; conditions: Mus musculus, L1210, 48 h; read-out: ID50 (the source's name)

SMILES | pKa [1] | IC50 [2]
Cc1c2cc[n+](C)cc2c(C)c2c3c([nH]c12)C=CC(=O)C3=O | 5.1 | 9.6 µM
COC1=CC(=O)C(=O)c2c1nc1c(C)c3ccn(C)cc3c(C)c21 |  | 5.8 µM
Cc1c2c(c(C)c3c[n+](C)ccc13)C1=CC(=O)C=CC1=N2 |  | 0.05 µM

Source: ChEMBL document CHEMBL1122214, “omicron-Quinone formation in the biochemical oxidation of the antitumor drug N2-methyl-9-hydroxyellipticinium acetate” (J Med Chem, 1983)
